Converted amounts (≈) assume the structure as drawn.
How the values were obtained:
MRSA and SA strains = test: MIC, summary over S. aureus strains; type: cell-based, Staphylococcus aureus; conditions: MRSA clinical isolate and MSSA ATCC29213; from MICs
Description: (§1) Susceptibility to teixobactin and its analogues was tested on the selected Gram-positive strains using Tecan Freedom EVO high-throughput automated platform, following the standard broth dilution method as described by the Clinical and Laboratory Standards Institute ^3. MICS were determined according to CLSI guideline.

MRSA(SA11I4) = type: cell-based, Staphylococcus aureus
Description: as §1

SA (ATCC29213) = type: cell-based, Staphylococcus aureus
Description: as §1

[1] = test system: Staphylococcus aureus strain ATCC43300; test: Wax worm survival model infected with S. aureus; type: in vivo, Galleria mellonella
From the text: FIG. 2. In vivo antibacterial activities of certain antibiotics of the invention. Efficacy of teixobactin and certain antibiotics of the invention for treating infections caused by Staphylococcus aureus strain ATCC43300 was studied in wax worm larvae (Galleria mellonella) model. PBS, control group without infection and treated with PBS: All other groups (20 each group) were infected with 10^7 CFU of S. aureus strain ATCC43300 followed by no treatment or treatment with one dose of vancomycin at 10 mg/kg (A-10) or 50 mg/kg (A-50), teixobactin at 10 mg/kg (B-10) or 50 mg/kg (B-50), or one dose of the representative analogue, Chg10-teixobactin, at 10 mg/kg (C-10) or 50 mg/kg (C-50).
Exemplary in vivo antibacterial activity: Chg10-Teixobactin was studied in wax worm survival models infected with S. aureus strain ATCC43300. Teixobactin were used as controls. […] At a dose of 50 mg/kg, Chg10-Teixobactin protected 100% infected wax worms (See FIG. 2).

MRSA SA88 = type: cell-based, Staphylococcus aureus
Description: as §1

MRSA SA11 = type: cell-based, Staphylococcus aureus
Description: as §1

MRSA SA86 = type: cell-based, Staphylococcus aureus
Description: as §1

Enterococcus ATCCET = type: cell-based
Description: as §1

Enterococcus ET6 = type: cell-based
Description: as §1

Enterococcus ET60 = type: cell-based
Description: as §1

[2] = test system: Streptococcus faecalis SF; type: cell-based
Description: as §1

| Minimum inhibitory concentration (MIC) MRSA(SA11I4) (MRSA(SA11I4)) [µg/mL] | Minimum inhibitory concentration (MIC) SA (ATCC29213) (SA (ATCC29213)) [µg/mL] | Minimum inhibitory concentration (MIC) MRSA SA88 (MRSA SA88) [µg/mL] | Minimum inhibitory concentration (MIC) MRSA SA11 (MRSA SA11) [µg/mL] | Minimum inhibitory concentration (MIC) MRSA SA86 (MRSA SA86) [µg/mL] | Minimum inhibitory concentration (MIC) Enterococcus ATCCET (Enterococcus ATCCET) [µg/mL] | Minimum inhibitory concentration (MIC) Enterococcus ET6 (Enterococcus ET6) [µg/mL] | Minimum inhibitory concentration (MIC) Enterococcus ET60 (Enterococcus ET60) [µg/mL] | Minimum inhibitory concentration (MIC) Streptococcus faecalis SF [2] [µg/mL] | SMILES | Antibacterial activity compared with teixobactin (MRSA and SA strains) | Infected wax worms protected ([1]; one dose of 50 mg/kg, wax worms infected with S. aureus ATCC43300) [%] | In vivo antibacterial activities, teixobactin as control ([1]; one dose treatment, wax worm survival model, S. aureus ATCC43300) |
| --- | --- | --- | --- | --- | --- | --- | --- | --- | --- | --- | --- | --- |
| 2 (≈ 1.61 µM) | 0.5 (≈ 0.403 µM) |  |  |  |  |  |  |  | CC[C@@H](C)[C@@H](NC(=O)[C@@H](CCC(N)=O)NC(=O)[C@H](CO)NC(=O)[C@@H](NC(=O)[C@@H](Cc1ccccc1)NC)[C@@H](C)CC)C(=O)N[C@H](C(=O)N[C@@H](CO)C(=O)N[C@H]1C(=O)N[C@@H](C)C(=O)N[C@@H](CC2CCCCC2)C(=O)N[C@@H]([C@@H](C)CC)C(=O)O[C@H]1C)[C@@H](C)CC [Cha10-teixobactin] | comparable activities as teixobactin |  |  |
| 1 (≈ 0.815 µM) | 0.25 (≈ 0.204 µM) |  |  |  |  |  |  |  | CC[C@@H](C)[C@@H](NC(=O)[C@@H](CCC(N)=O)NC(=O)[C@H](CO)NC(=O)[C@@H](NC(=O)[C@@H](Cc1ccccc1)NC)[C@@H](C)CC)C(=O)N[C@H](C(=O)N[C@@H](CO)C(=O)N[C@H]1C(=O)N[C@@H](C)C(=O)N[C@@H](C2CCCCC2)C(=O)N[C@@H]([C@@H](C)CC)C(=O)O[C@H]1C)[C@@H](C)CC [Chg10-teixobactin] | two times higher activities than teixobactin | 100 | improved antibacterial activities |
| 1 (≈ 0.82 µM) | 0.25 (≈ 0.205 µM) |  |  |  |  |  |  |  | CC[C@@H](C)[C@@H](NC(=O)[C@@H](CCC(N)=O)NC(=O)[C@H](CO)NC(=O)[C@@H](NC(=O)[C@@H](Cc1ccccc1)NC)[C@@H](C)CC)C(=O)N[C@H](C(=O)N[C@@H](CO)C(=O)N[C@H]1C(=O)N[C@@H](C)C(=O)N[C@@H](CCSC)C(=O)N[C@@H]([C@@H](C)CC)C(=O)O[C@H]1C)[C@@H](C)CC [Met10-teixobactin/Methibactin, Met10-teixobactin] | two times higher activities than teixobactin |  |  |
| 2 (≈ 1.66 µM) | 0.5 (≈ 0.416 µM) |  |  |  |  |  |  |  | CCCC[C@@H]1NC(=O)[C@H](C)NC(=O)[C@H](NC(=O)[C@H](CO)NC(=O)[C@@H](NC(=O)[C@H](NC(=O)[C@@H](CCC(N)=O)NC(=O)[C@H](CO)NC(=O)[C@@H](NC(=O)[C@@H](Cc2ccccc2)NC)[C@@H](C)CC)[C@H](C)CC)[C@@H](C)CC)[C@H](C)OC(=O)[C@H]([C@@H](C)CC)NC1=O [Nle10-teixobactin] | comparable activities as teixobactin |  |  |
| 1 (≈ 0.842 µM) | 0.25 (≈ 0.211 µM) |  |  |  |  |  |  |  | CCC[C@@H]1NC(=O)[C@H](C)NC(=O)[C@H](NC(=O)[C@H](CO)NC(=O)[C@@H](NC(=O)[C@H](NC(=O)[C@@H](CCC(N)=O)NC(=O)[C@H](CO)NC(=O)[C@@H](NC(=O)[C@@H](Cc2ccccc2)NC)[C@@H](C)CC)[C@@H](C)CC)[C@@H](C)CC)[C@H](C)OC(=O)[C@H]([C@@H](C)CC)NC1=O [Nva10-teixobactin] | two times higher activities than teixobactin |  |  |
| 1 (≈ 0.798 µM) | 0.5 (≈ 0.399 µM) |  |  |  |  |  |  |  | CC[C@H](C)[C@H](NC(=O)[C@@H](Cc1ccccc1)NC)C(=O)N[C@@H](CO)C(=O)N[C@H](CCC(N)=O)C(=O)N[C@@H](C(=O)N[C@H](C(=O)N[C@@H](CO)C(=O)N[C@H]1C(=O)N[C@@H](C)C(=O)N[C@@H](Cc2ccc(F)cc2)C(=O)N[C@@H]([C@@H](C)CC)C(=O)O[C@H]1C)[C@@H](C)CC)[C@@H](C)CC [Phe(4-F)10-teixobactin/Flurobactin, Phe(4-F)10-teixobactin] | two times higher activities than teixobactin |  |  |
| 1 (≈ 0.815 µM) | 0.5 (≈ 0.408 µM) | 0.5 (≈ 0.408 µM) | 0.5 (≈ 0.408 µM) | 1 (≈ 0.815 µM) | 1 (≈ 0.815 µM) | 1 (≈ 0.815 µM) | 0.5 (≈ 0.408 µM) | 0.5 (≈ 0.408 µM) | CC[C@@H](C)[C@@H](NC(=O)[C@@H](CCC(N)=O)NC(=O)[C@H](CO)NC(=O)[C@@H](NC(=O)[C@@H](Cc1ccccc1)NC)[C@@H](C)CC)C(=O)N[C@H](C(=O)N[C@@H](CO)C(=O)N[C@H]1C(=O)N[C@@H](C)C(=O)N[C@@H](C2CCCCC2)C(=O)N[C@@H]([C@@H](C)CC)C(=O)N[C@H]1C)[C@@H](C)CC [T83] |  |  |  |
| 1 (≈ 0.833 µM) | 0.5 (≈ 0.416 µM) | 1 (≈ 0.833 µM) | 0.5 (≈ 0.416 µM) | 1 (≈ 0.833 µM) | 1 (≈ 0.833 µM) | 1 (≈ 0.833 µM) | 1 (≈ 0.833 µM) | 1 (≈ 0.833 µM) | CC[C@@H](C)[C@@H](NC(=O)[C@@H](CCC(N)=O)NC(=O)[C@H](CO)NC(=O)[C@@H](NC(=O)[C@@H](Cc1ccccc1)NC)[C@@H](C)CC)C(=O)N[C@H](C(=O)N[C@@H](CO)C(=O)N[C@H]1C(=O)N[C@@H](C)C(=O)N[C@@H]([C@@H](C)CC)C(=O)N[C@@H]([C@@H](C)CC)C(=O)N[C@H]1C)[C@@H](C)CC [T84] |  |  |  |
| 1 (≈ 0.843 µM) | 0.5 (≈ 0.421 µM) | 2 (≈ 1.69 µM) | 1 (≈ 0.843 µM) | 2 (≈ 1.69 µM) | 2 (≈ 1.69 µM) | 2 (≈ 1.69 µM) | 2 (≈ 1.69 µM) | 1 (≈ 0.843 µM) | CCC[C@@H]1NC(=O)[C@H](C)NC(=O)[C@H](NC(=O)[C@H](CO)NC(=O)[C@@H](NC(=O)[C@H](NC(=O)[C@@H](CCC(N)=O)NC(=O)[C@H](CO)NC(=O)[C@@H](NC(=O)[C@@H](Cc2ccccc2)NC)[C@@H](C)CC)[C@H](C)CC)[C@@H](C)CC)[C@H](C)NC(=O)[C@H]([C@@H](C)CC)NC1=O [T85] |  |  |  |
| 2 (≈ 1.64 µM) | 1 (≈ 0.821 µM) | 2 (≈ 1.64 µM) | 1 (≈ 0.821 µM) | 2 (≈ 1.64 µM) | 2 (≈ 1.64 µM) | 2 (≈ 1.64 µM) | 2 (≈ 1.64 µM) | 1 (≈ 0.821 µM) | CC[C@@H](C)[C@@H](NC(=O)[C@@H](CCC(N)=O)NC(=O)[C@H](CO)NC(=O)[C@@H](NC(=O)[C@@H](Cc1ccccc1)NC)[C@@H](C)CC)C(=O)N[C@H](C(=O)N[C@@H](CO)C(=O)N[C@H]1C(=O)N[C@@H](C)C(=O)N[C@@H](CCSC)C(=O)N[C@@H]([C@@H](C)CC)C(=O)N[C@H]1C)[C@@H](C)CC [T86] |  |  |  |
| 2 (≈ 1.54 µM) | 1 (≈ 0.771 µM) | 1 (≈ 0.771 µM) | 0.5 (≈ 0.386 µM) | 2 (≈ 1.54 µM) | 1 (≈ 0.771 µM) | 1 (≈ 0.771 µM) | 0.5 (≈ 0.386 µM) | 1 (≈ 0.771 µM) | CC[C@@H](C)[C@@H](NC(=O)[C@@H](CCC(N)=O)NC(=O)[C@H](CCCNC(=N)N)NC(=O)[C@@H](NC(=O)[C@@H](Cc1ccccc1)NC)[C@@H](C)CC)C(=O)N[C@H](C(=O)N[C@@H](CO)C(=O)N[C@H]1C(=O)N[C@@H](C)C(=O)N[C@@H](C2CCCCC2)C(=O)N[C@@H]([C@@H](C)CC)C(=O)O[C@H]1C)[C@@H](C)CC [T87] |  |  |  |
| 2 (≈ 1.67 µM) | 0.5 (≈ 0.417 µM) |  |  |  |  |  |  |  | CC[C@@H](C)[C@@H](NC(=O)[C@@H](CCC(N)=O)NC(=O)[C@H](CO)NC(=O)[C@@H](NC(=O)[C@@H](Cc1ccccc1)NC)[C@@H](C)CC)C(=O)N[C@H](C(=O)N[C@@H](CO)C(=O)N[C@H]1C(=O)N[C@@H](C)C(=O)N[C@@H](CC2CC2)C(=O)N[C@@H]([C@@H](C)CC)C(=O)O[C@H]1C)[C@@H](C)CC [β-cyclopropyl-Ala10-teixobactin] | comparable activities as teixobactin |  |  |
